According to patent US20250268869A1, “METHODS OF USING A (THIAZOLYL)BENZENESULFONAMIDE DERIVATIVE” (Cyteir Therapeutics, Inc., priority 2022, published 2025):

Legend:
human MCT1 = biological target: T1, human MCT1 (Homo sapiens, UniProt P53985); assay: MCT1 Transport Inhibition Assay; type: cell-based; conditions: MDCK-II cells overexpressing human MCT1 (with CD147), TPGA transport, LC-MS/MS; read-out: BioIVT MCT1 Transporter IC50
T1 construct: host or cells: MDCK-II cells, transiently co-transfected
T1 sequence (P53985 1-500): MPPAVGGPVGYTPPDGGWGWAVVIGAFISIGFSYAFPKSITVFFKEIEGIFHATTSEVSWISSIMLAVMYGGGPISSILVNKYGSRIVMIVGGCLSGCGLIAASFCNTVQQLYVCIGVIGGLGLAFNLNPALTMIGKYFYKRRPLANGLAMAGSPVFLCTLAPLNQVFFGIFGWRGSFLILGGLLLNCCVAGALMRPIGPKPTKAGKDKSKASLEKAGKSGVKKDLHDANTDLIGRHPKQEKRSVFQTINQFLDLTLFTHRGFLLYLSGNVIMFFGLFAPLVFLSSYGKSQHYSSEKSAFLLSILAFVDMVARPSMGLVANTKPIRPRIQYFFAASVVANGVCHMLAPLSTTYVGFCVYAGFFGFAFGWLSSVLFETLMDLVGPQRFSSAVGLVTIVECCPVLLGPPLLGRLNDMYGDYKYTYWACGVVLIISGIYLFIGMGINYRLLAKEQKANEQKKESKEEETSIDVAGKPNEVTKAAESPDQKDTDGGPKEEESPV
T1 sequence (P35613 140-385 partner limits assumed): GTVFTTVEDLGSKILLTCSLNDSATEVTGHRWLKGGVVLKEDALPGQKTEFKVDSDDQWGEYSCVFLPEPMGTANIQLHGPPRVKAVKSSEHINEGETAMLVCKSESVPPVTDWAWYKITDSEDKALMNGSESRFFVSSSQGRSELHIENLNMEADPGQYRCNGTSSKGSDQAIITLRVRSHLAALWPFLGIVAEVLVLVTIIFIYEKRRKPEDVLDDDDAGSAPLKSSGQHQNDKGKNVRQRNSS
Procedure: Inhibition of MCT1 transport after treatment with compounds of the present invention was measured in MDCK-II cells that overexpress human MCT1 by quantifying the transport of 2-Thiophene-glycoxylic acid (TPGA) into cells using LC-MS/MS.
MDCK-II cells are seeded at 60,000 cells per well in growth medium (low-glucose DMEM+10% FBS) in 96-well trans-well membrane plates, and incubated overnight (37° C., 5% CO2). Cells were co-transfected with mammalian expression constructs coding for MCT1 and CD147 at a 2:1 ratio or an empty vector control (GFP) and then incubated for 48h (37° C., 5% CO2). Cells were washed 3 times with HBSS and cells were preincubated with inhibitors or vehicle control at room temperature in HBSS for 30 min with orbital shaking (60 rpm). HBSS was aspirated from the wells and replaced with HBSS with 25 mM Bis-Tris pH5.5+inhibitor or vehicle control+500 μM TPGA and incubated for 1 min at room temperature with orbital shaking (60 rpm). Both the apical and basolateral side of the trans-well insert were washed 4 times with ice-cold PBS. Cells were lysed with 60 μL of cell extraction solution, and the amount of TPGA in each well was quantified in triplicate by LC-MS/MS. The MCT1-mediated uptake rate was calculated using the following equation: […]
Percent inhibition for each concentration of inhibitor tested was calculated using the following equation: […]
Curves were fit to the calculated percent inhibition for each inhibitor, and the IC50 representing the concentration of inhibitor at which MCT1 is inhibited by 50% was calculated from this curve.

[1] = test system: Daudi (Burkitt Lymphoma) cells; assay: Intracellular Lactate Accumulation Assay (Lactate-Glo); type: cell-based; conditions: Homo sapiens, 2h treatment, read-out: LactateGlo EC50
Procedure: Intracellular lactate accumulation after a 2h treatment with compounds of the present invention was measured in Daudi (Burkitt Lymphoma) cells using the Lactate-Glo Assay (Promega).
Daudi cells were seeded at 7,500 cells per well in 150 μL of growth medium (RPMI-1640 with 2 mM GlutaMAX+10% FBS) in clear, 96-well, flat-bottom microplates, and incubated overnight (37° C., 5% CO2). Compounds of the present invention were added using an INTEGRA VIAFLO 96 (8 point, 3-fold serial dilution, top concentration 1, 10, or 20 μM, 0.4% final DMSO concentration). After a 2h incubation (37° C., 5% CO2) microplates containing cells were washed twice with 150 μL ice-cold PBS, resuspended in 25 μL ice-cold PBS containing 12.5 μL 0.6N HCl, and placed on a microplate shaker for 5 min to lyse the cells. Following lysis, 12.5 μL 1M Trizma base was added to neutralize the suspension, and microplates were returned to the microplate shaker for 1 min. Plates were sealed and stored at −20° C. until further processing. On the day of the assay, microplates were thawed for 45 min at room temperate and 50 μL Lactate Detection Reagent (prepared as specified by manufacturer) was added to each well. Microplates were placed on a plate shaker for 1 min and incubated at room temperature for 1h. Luminescence was measured using a BioTek Cytation 5 Multi-Mode Reader. Curve fitting and calculation of EC50 was performed using GraphPad Prism.

Structure (SMILES) | IC50 (human MCT1) [µM] | EC50 [1] [µM]
Cc1[nH]nc(C(F)(F)F)c1Cc1sc2c(c1C(=O)N1C[C@](C)(O)CO1)c(=O)n(C)c(=O)n2C(C)C [AZD3965] | 0.05 to 0.15 | –
O=C(Nc1ccccc1C(=O)O)c1cc(S(=O)(=O)c2ccccc2)ccc1Cl [BAY8002] | 0.05 to 0.15 | –
CCNS(=O)(=O)c1cc(Nc2ccn[nH]2)ccc1-c1cnc([C@H]2CC[C@H](NC(=O)OC(C)C)CC2)s1 [Compound 121, isopropyl trans-N-[4-[5-[2-(ethylsulfamoyl)-4-[(1H-pyrazol-5-yl)amino]phenyl]thiazol-2-yl]cyclohexyl]carbamate] | – | < 0.05
CCNS(=O)(=O)c1cc(Nc2ccc(CC)nn2)ccc1-c1cnc([C@H]2CC[C@H](NC(=O)OC(C)C)CC2)s1 [Compound 157, isopropyl trans-N-[4-[5-[4-[(6-ethylpyridazin-3-yl)amino]-2-(ethylsulfamoyl)phenyl]thiazol-2-yl]cyclohexyl]carbamate] | 0.05 to 0.15 | < 0.05
CC(C)OC(=O)Nc1ccc(-c2cnc(C3CCC(NC(=O)OC(C)C)CC3)s2)c(S(=O)(=O)NCCN(C)C)c1 (stereo not shown) [Compound 175] | – | 1 to 5
CC(C)OC(=O)NC1CCC(c2ncc(-c3ccc(N(C)C(=O)NCc4ccccc4)cc3S(=O)(=O)NC(C)(C)CO)s2)CC1 (stereo not shown) [Compound 176] | – | > 5
